Source: patent US9586914B2, “Modulators of C3a receptors” (THE UNIVERSITY OF QUEENSLAND, priority 2011, dated 2017)

Key:
C3a receptor (C3aR) = target: T1, C3a receptor (C3aR) (Homo sapiens, UniProt Q16581); experiment: Competitive binding with [^125I]-C3a in HMDM; details: Table 6, competitive binding with [^125I]-C3a, HMDM
T1 construct: peripheral blood mononuclear cells were isolated from buffy coat (obtained from Australian Red Cross Blood Service, Kelvin Grove); endogenous in cells; host or cells: primary human monocyte-derived macrophages (HMDM) differentiated from CD14+ monocytes of donor buffy coat
T1 sequence (Q16581 1-482): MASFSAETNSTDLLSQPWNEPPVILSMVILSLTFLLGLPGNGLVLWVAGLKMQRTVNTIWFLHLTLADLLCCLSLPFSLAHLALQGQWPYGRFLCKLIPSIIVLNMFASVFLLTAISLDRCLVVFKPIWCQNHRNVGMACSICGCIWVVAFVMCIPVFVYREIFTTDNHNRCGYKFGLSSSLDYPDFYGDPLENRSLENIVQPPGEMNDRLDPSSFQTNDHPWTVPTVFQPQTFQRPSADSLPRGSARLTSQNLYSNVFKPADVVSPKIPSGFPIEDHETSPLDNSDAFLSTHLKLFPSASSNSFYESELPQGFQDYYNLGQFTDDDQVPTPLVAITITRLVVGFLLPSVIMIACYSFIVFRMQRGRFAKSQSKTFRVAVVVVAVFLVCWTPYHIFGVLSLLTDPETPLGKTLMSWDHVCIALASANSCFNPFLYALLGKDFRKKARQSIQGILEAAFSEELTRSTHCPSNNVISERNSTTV
Method in brief: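 IC50 values are geometric means, with −log IC50 computed per experiment and given as arithmetic mean ± SE. Cells were CD14+ monocytes from buffy-coat PBMC, differentiated to macrophages and used on day 7. Unbound label was removed by GF/B filtration with 3 cold washes in 50 mM Tris-HCl pH 7.4.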

C3aR [1] = target: T2, C3aR (Homo sapiens, UniProt Q16581); experiment: Calcium mobilization assay in HMDM (agonist/antagonist activity); assay type: cell-based; details: Table 9, Ca^2+ mobilization, HMDM
T2 construct: peripheral blood mononuclear cells were isolated from buffy coat (obtained from Australian Red Cross Blood Service, Kelvin Grove); endogenous in cells; host or cells: primary human monocyte-derived macrophages (HMDM) differentiated from CD14+ monocytes of donor buffy coat
T2 sequence (Q16581 1-482): T1 sequence (Q16581 1-482)
Method in brief: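 Human monocyte-derived macrophages, 5×10^4 cells/well, loaded 1 h at 37 °C with 4 μM Fluo-3 in HBSS/HEPES/probenecid buffer, pH 7.4. Agonist mode: calcium release read 300 s; antagonist mode: 900 s compound preincubation then agonist, read 300 s (ex 485/em 520 nm); compared with hC3a.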

C3aR [2] = target: T2, C3aR; experiment: Desensitization experiments (Ca^2+ efflux after hC3a desensitization); assay type: cell-based; details: hC3a 3 μM first; second addition of 1 μM compound; HMDM
Method: Desensitization experiments were used to measure the selectivity of various ligands for C3aR, since this can help to clarify whether the non-peptidic ligands bind selectively to C3aR over other GPCRs that signal through intracellular calcium release.
The hC3a (3 μM) was administered to human monocyte derived macrophage cells, which produces an efflux of intracellular Ca^2+ that dissipates after 4-5 mins (FIGS. 4A and 4B). A second addition of 3 μM hC3a after 5 mins has no effect, due to desensitization of the receptor through either receptor (C3a receptor) phosphorylation or receptor internalization from the cell surface.

- pIC50 ± SEM (C3a receptor (C3aR)): 8.03 ± 0.05
- IC50 (C3a receptor (C3aR); read-out: IC50 (converted)): 9 nM
- pEC50 ± SEM (C3aR [1]): 8.15 ± 0.10
- EC50 (C3aR [1]; read-out: EC50): 7.2 nM
Structure (SMILES): CC(C)C[C@H](NC(=O)c1c[nH]c2ccccc12)c1nc(C(=O)N[C@@H](CCCNC(=N)N)C(=O)O)co1 [Compound 8, 3-Indole Carboxylic Acid-Leucine-Oxazole-Arginine-OH]
- Ca^2+ efflux on addition after first desensitization with hC3a (selectivity for C3aR over other GPCRs) (C3aR [2]): caused a second efflux of intracellular Ca^2+
